Test results as given in ChEMBL document CHEMBL1150522, “Preparation and antifungal activity of fusacandin analogs: C-6 sidechain esters” (1996).
≈ marks a conversion by molar mass, not a printed value.

Experiments:
Type in all cases: functional
[1] = tested on: Candida albicans; assay: Minimum inhibitory concentration against Candida albicans (CCH 442) in the presence of serum
[2] = tested on: Candida albicans; assay: Minimum inhibitory concentration against Candida albicans (ATCC 10231) in the absence of serum.
[3] = tested on: Candida albicans; assay: Minimum inhibitory concentration against Candida albicans (ATCC 10231) in the presence of serum
[4] = tested on: Candida albicans; assay: Minimum inhibitory concentration against Candida albicans (ATCC 38247) in the absence of serum.
[5] = tested on: Candida albicans; assay: Minimum inhibitory concentration against Candida albicans (ATCC 38247) in the presence of serum
[6] = tested on: Candida albicans; assay: Minimum inhibitory concentration against Candida albicans (ATCC 62376) in the absence of serum.
[7] = tested on: Candida albicans; assay: Minimum inhibitory concentration against Candida albicans (ATCC 62376) in the presence of serum
[8] = tested on: Candida albicans; assay: Minimum inhibitory concentration against Candida albicans (CCH 442) in the absence of serum.
[9] = tested on: Candida albicans; assay: Minimum inhibitory concentration against Candida albicans (579a) in the absence of serum.
[10] = tested on: Candida albicans; assay: Minimum inhibitory concentration against Candida albicans (579a) in the presence of serum

**Q.** For CCCCC/C=C/C=C/[C@@H](O)C/C=C/C=C/C(=O)O[C@@H]1[C@@H](O)[C@H](c2c(O)cc(O)cc2CO)O[C@H](CO)[C@H]1O[C@@H]1O[C@H](COC(=O)c2ccc(-c3ccc(O)cc3)cc2)[C@H](O)[C@H](O)[C@H]1O[C@@H]1O[C@H](CO)[C@H](O)[C@H](O)[C@H]1O, which MIC [1] is on record?
**A.** The MIC was 6.25 µg/mL.

**Q.** What about the MIC [2] of the same compound?
**A.** Its MIC is > 100 µg/mL.

**Q.** And the MIC [3]?
**A.** Its MIC is 12.5 µg/mL.

**Q.** And the MIC [4]?
**A.** The MIC was > 100 µg/mL.

**Q.** And the MIC [5]?
**A.** Its MIC is 6.25 µg/mL.

**Q.** And the MIC [6]?
**A.** Its MIC is > 100 µg/mL.

**Q.** And the MIC [7]?
**A.** Its MIC is 12.5 µg/mL.

**Q.** And the MIC [8]?
**A.** Its MIC is > 100 µg/mL.

**Q.** What about the MIC [9] of the same compound?
**A.** Its MIC is > 100 µg/mL.

**Q.** And the MIC [10]?
**A.** Its MIC is 6.25 µg/mL.

**Q.** For CCCCC/C=C/C=C/[C@@H](O)C/C=C/C=C/C(=O)O[C@@H]1[C@@H](O)[C@H](c2c(O)cc(O)cc2CO)O[C@H](CO)[C@H]1O[C@@H]1O[C@H](COC(=O)/C=C/C=C/CCCCCC)[C@H](O)[C@H](O)[C@H]1O[C@@H]1O[C@H](CO)[C@H](O)[C@H](O)[C@H]1O, which MIC [1] is on record?
**A.** Its MIC is 1.56 µg/mL.

**Q.** And the MIC [2]?
**A.** Its MIC is > 100 µg/mL.

**Q.** What about the MIC [3] of the same compound?
**A.** The MIC was 1.56 µg/mL.

**Q.** What about the MIC [4] of the same compound?
**A.** Its MIC is > 100 µg/mL.

**Q.** What about the MIC [5] of the same compound?
**A.** The MIC was 1.56 µg/mL.

**Q.** And the MIC [6]?
**A.** The MIC was > 100 µg/mL.

**Q.** And the MIC [7]?
**A.** The MIC was 3.12 µg/mL.

**Q.** And the MIC [8]?
**A.** Its MIC is > 100 µg/mL.

**Q.** And the MIC [9]?
**A.** The MIC was > 100 µg/mL.

**Q.** And the MIC [10]?
**A.** Its MIC is 0.78 µg/mL.

**Q.** With CCCCC/C=C/C=C/[C@@H](O)C/C=C/C=C/C(=O)O[C@@H]1[C@@H](O)[C@H](c2c(O)cc(O)cc2CO)O[C@H](CO)[C@H]1O[C@@H]1O[C@H](COC(=O)c2ccc(-c3ccccc3OC)cc2)[C@H](O)[C@H](O)[C@H]1O[C@@H]1O[C@H](CO)[C@H](O)[C@H](O)[C@H]1O as the compound, how does the MIC [1] read?
**A.** The MIC was 6.25 µg/mL.

**Q.** What about the MIC [2] of the same compound?
**A.** The MIC was 50 µg/mL (≈ 46.2 µM).

**Q.** And the MIC [3]?
**A.** Its MIC is 6.25 µg/mL.

**Q.** What about the MIC [4] of the same compound?
**A.** The MIC was 100 µg/mL (≈ 92.3 µM).

**Q.** And the MIC [5]?
**A.** Its MIC is 6.25 µg/mL.

**Q.** And the MIC [6]?
**A.** Its MIC is 50 µg/mL (≈ 46.2 µM).

**Q.** What about the MIC [7] of the same compound?
**A.** The MIC was 1.56 µg/mL.

**Q.** And the MIC [8]?
**A.** The MIC was 50 µg/mL (≈ 46.2 µM).

**Q.** What about the MIC [9] of the same compound?
**A.** Its MIC is 50 µg/mL (≈ 46.2 µM).

**Q.** And the MIC [10]?
**A.** Its MIC is 1.56 µg/mL.

**Q.** With CCCCC/C=C/C=C/[C@@H](O)C/C=C/C=C/C(=O)O[C@@H]1[C@@H](O)[C@H](c2c(O)cc(O)cc2CO)O[C@H](CO)[C@H]1O[C@@H]1O[C@H](COC(=O)c2ccc3ccccc3c2)[C@H](O)[C@H](O)[C@H]1O[C@@H]1O[C@H](CO)[C@H](O)[C@H](O)[C@H]1O as the compound, how does the MIC [1] read?
**A.** Its MIC is 1.56 µg/mL.

**Q.** And the MIC [2]?
**A.** Its MIC is 50 µg/mL (≈ 48.7 µM).

**Q.** What about the MIC [3] of the same compound?
**A.** Its MIC is 3.12 µg/mL.

**Q.** And the MIC [4]?
**A.** The MIC was > 100 µg/mL.

**Q.** And the MIC [5]?
**A.** The MIC was 0.78 µg/mL.

**Q.** And the MIC [6]?
**A.** Its MIC is 25 µg/mL (≈ 24.3 µM).

**Q.** And the MIC [7]?
**A.** Its MIC is 3.12 µg/mL.

**Q.** And the MIC [8]?
**A.** Its MIC is 50 µg/mL (≈ 48.7 µM).

**Q.** What about the MIC [9] of the same compound?
**A.** Its MIC is 50 µg/mL (≈ 48.7 µM).

**Q.** And the MIC [10]?
**A.** Its MIC is 0.78 µg/mL.
